Measured values from patent US20140378395A1, “Peptides for the Treatment of Hearing” (13Therapeutics, Inc., priority 2011, published 2014).

Tests used:
[1] = system: TNF-α secretion from RAW264.7 cells; experiment: Inhibition of CpG-ODN-induced TNF-α secretion from RAW264.7 cells (ELISA); type: cell-based, murine; settings: peptide 3.1 μM (Table 3), 1 μg/ml CpG-ODN, 4 hours
[2] = system: TNF-α secretion from RAW264.7 cells; experiment: as above; type: cell-based, murine; settings: for Inhibition of TNF-α secretion (percent inhibition) / Percent Inhibition of TNF-α secretion / Percent Inhibition of TNF-α secretion, CpG Stimulation: RAW264.7, 4 hours; for Inhibition of TNF-α secretion (percent inhibition) / Percent Inhibition of TNF-α secretion: 1 μg/ml CpG-ODN; for activity compared with P13 (inhibition of TNF-α after stimulation of RAW264.7 cells with CpG): SAR, versus P13; for Percent Inhibition of TNF-α secretion, CpG Stimulation: 1.25 ug/ml CpG-ODN
Experimental: RAW264.7 cells were plated at 1.5×10^5 cells/well-3×10^5 cells/well in 48-well plates. After 24 hours, the cells were incubated with peptides at various concentrations at room temperature in triplicate either before, simultaneous with, or after activation with various PAMPs for 18 hours. Cell-free supernatants were analyzed for cytokines by ELISA, in quadruplicate. RAW264.7 cells were stimulated with either CpG-ODN (1 μg/ml or 1.25 μg/ml), LPS (about 1 ng/ml), Poly (I:C) (about 10 μg/ml), flagellin (about 5 ng/ml), or zymosan (about 10 μg/ml). Dose response curves were done with each PAMP to determine optimal stimulation concentration. For CpG-ODN stimulation, cells were incubated for 4 hours at 37° C., supernatants collected, and TNF-α measured by ELISA. Any cytokine involved in inflammatory disease mediated toll receptor signaling can be measured using similar assays.
The effect of several peptides on TNF-α secretion from RAW264.7 cells in response to stimulation by CpG-ODN was studied. Each peptide was initially tested at 3 concentrations, 37 μM, 22.2 μM, and 11.1 μM. […] The peptides were then tested at 11.1 μM, 7.4 μM, and 3.7 μM (Table 3). […] Cell viability was examined for each peptide at the concentrations tested for TNF-α inhibition.
Inhibition of TNF-α secretion by various T-peptides was examined. RAW264.7 cells were plated at 3×10^5 cells/well in 48-well plates. After 24 h the cells were incubated with peptide at various concentrations at room temperature in triplicate for 15 minutes and then stimulated with 1.25 ug/ml CpG-ODN or 1 ng/ml LPS. Cells were then incubated for 4 hours at 37° C., supernatants collected, and TNF-α measured by ELISA. Percent inhibition was calculated by comparing TNF-α secretion from cells incubated with peptide to control cells with no peptide treatment. The inhibitive effects of peptides T3 (SEQ ID NO: 319), T11 (SEQ ID NO: 327), T21 (SEQ ID NO: 337), T36 (SEQ ID NO: 352), T37 (SEQ ID NO: 353), T51 (SEQ ID NO: 367), and T52 (SEQ ID NO: 368) were compared to inhibition by an analogue of P13 (SEQ ID NO: 369) having a sequence of nine arginine residues at the C-terminus (P13-R^9 (SEQ ID NO: 378)). (Table 4).

Sequence | Inhibition of TNF-α secretion (percent inhibition) [1] [%] | Inhibition of TNF-α secretion (percent inhibition) ([2]; peptide 7 μM (Table 3)) [%] | Inhibition of TNF-α secretion (percent inhibition) ([2]; peptide 11 μM (Table 3)) [%] | Percent Inhibition of TNF-α secretion ([2]; peptide 11.1 μM) [%] | Percent Inhibition of TNF-α secretion ([2]; peptide 22.2 μM) [%] | Percent Inhibition of TNF-α secretion ([2]; peptide 37 μM) [%] | activity compared with P13 (inhibition of TNF-α after stimulation of RAW264.7 cells with CpG) [2] | Percent Inhibition of TNF-α secretion, CpG Stimulation ([2]; peptide 7.1 μM) [%] | Percent Inhibition of TNF-α secretion, CpG Stimulation ([2]; peptide 11.1 μM) [%] | Percent Inhibition of TNF-α secretion, CpG Stimulation ([2]; peptide 22 μM) [%]
FTILEEYFMYRGLLGLRIKYGRLFNEIRRRRRRRRR (C-terminal nona-arginine (R9)) [44(S3)-R^9] | 0 | 24 | 78 | 91 | 96 | 95 |  |  |  | 
FTILEEYFMYRGLLGLRIRRRRRRRRR (C-terminal nona-arginine (R9)) [103(S19)-R^9] |  | 87 | 93 | 93 | 99 |  |  |  |  | 
EMFTILEEYFMYRGLLGLRIKRRRRRRRRR (C-terminal nona-arginine (R9)) [74(S10)-R^9] | 35 | 80 | 92 | 91 | 100 | 100 |  |  |  | 
AIIKVYVYACIRRRRRRRRR [T52-R^9] |  |  |  |  |  |  | superior activity | 97.8 | 99.2 | 100
EMFTILEEYFMYRGLLGLRIKYRRRRRRRRR (C-terminal nona-arginine (R9)) [73(S9)-R^9] | 3 | 76 | 85 | 84 | 100 | 100 |  |  |  | 
EMFTILEEYFMYRGLLGLRIKYGRLFRRRRRRRRR (C-terminal nona-arginine (R9)) [69(S5)-R^9] | 66 | 94 | 93 | 93 | 100 | 100 |  |  |  | 
EMFTILEEYFMYRGLLGLRIKYGRRRRRRRRR (C-terminal nona-arginine (R9)) [72(S8)-R^9] | 43 | 80 | 93 | 92 | 100 | 100 |  |  |  | 
EMFTILEEYFMYRGLLGLRRRRRRRRR (C-terminal nona-arginine (R9)) [77(S13)-R^9] | 18 | 77 | 81 | 84 | 89 | 93 |  |  |  | 
EMFTILEEYFMYRRRRRRRRR (C-terminal nona-arginine (R9)) [83(S17)-R^9] | 0 | 44 | 57 | 72 | 82 | 89 |  |  |  | 
EMFTILEEYFMYRGLLGLRIKYGRLFNEIRRRRRRRRR (C-terminal nona-arginine (R9)) [42(S1)-R^9] | 37 | 67 | 83 | 85 | 96 | 97 |  |  |  | 
TILEEYFMYRGLLGLRIRRRRRRRRR (C-terminal nona-arginine (R9)) [104(S20)-R^9] |  | 60 | 74 | 74 | 93 |  |  |  |  | 
EMFTILEEYFMYRGRRRRRRRRR (C-terminal nona-arginine (R9)) [81(S16)-R^9] | 26 | 53 | 70 | 84 | 86 | 90 |  |  |  | 
EMFTILEEYFMYRGLLGLRIKYGRRRRRRRRRR (C-terminal nona-arginine (R9)) [71(S7)-R^9] | 21 | 29 | 38 | 56 | 82 | 91 |  |  |  | 
MFTILEEYFMYRGLLGLRIRRRRRRRRR (C-terminal nona-arginine (R9)) [102(S18)-R^9] |  | 48 | 72 | 72 | 91 |  |  |  |  | 
EMFTILEEYFMYRGLRRRRRRRRR (C-terminal nona-arginine (R9)) [80(S15)-R^9] | 57 | 68 | 81 | 78 | 87 | 91 |  |  |  | 
DIVKVTVYDCIRRRRRRRRR [T37-R^9] |  |  |  |  |  |  | superior activity | 46 | 87 | 93
EMFTILEEYFMYRGLLGLRIKYGRLFNRRRRRRRRR (C-terminal nona-arginine (R9)) [68(S4)-R^9] | 69 | 83 | 95 | 95 | 100 | 100 |  |  |  | 
EMFTILEEYFMYRGLLGLRIKYGRLRRRRRRRRR (C-terminal nona-arginine (R9)) [70(S6)-R^9] | 63 | 87 | 94 | 93 | 100 | 100 |  |  |  | 
LEEYFMYGLLGLRIRRRRRRRRR (C-terminal nona-arginine (R9)) [106(S22)-R^9] |  | 53 | 70 | 70 | 92 |  |  |  |  | 
ILEEYFMYRGLLGLRIRRRRRRRRR (C-terminal nona-arginine (R9)) [105(S21)-R^9] |  | 52 | 62 | 62 | 91 |  |  |  |  | 
DIIKLTVYDCIRRRRRRRRR [T36-R^9] |  |  |  |  |  |  | superior activity | 50 | 70 | 82
DIVKLYVYDCIRRRRRRRRR [T21-R^9] |  |  |  |  |  |  | superior activity | 69 | 90 | 98
AIVKLTVYACIRRRRRRRRR [T51-R^9] |  |  |  |  |  |  | superior activity | 94 | 98 | 99.7
